This assay addresses BTK (Homo sapiens, UniProt Q06187). Put plainly: biochemical.
Setting [1] is: read-out: BTK inhibition (%), 0.75 uM BTK, […] probe 3l, 15 min preincubation.

Like-named read-outs stand apart in the source and are kept apart here. *1 amine or outer side, *2 acyl side, *3 side chain or, on linkers, in order; H or OH if unused. Where a SMILES comes first, the peptide text is derived from it. Bridges are numbered along the chain shown (N, C = ends). Roman numbers before positions name the chains, in order. [ ]: non-standard residue; d: D form. Hexamethylenediamine = C(CCCN[*:2])CCN[*:1]; Dip = N[C@H](C(=O)O)C(c1ccccc1)c1ccccc1; Chg = N[C@H](C(=O)O)C1CCCCC1; NMeA = CN[C@@H](C)C(=O)O

The results in this text go back to article PMC8041284, “Tunable Methacrylamides for Covalent Ligand Directed Release Chemistry” (Journal of the American Chemical Society, 2021).

Chain of BTK (Q06187 402-655 limits assumed): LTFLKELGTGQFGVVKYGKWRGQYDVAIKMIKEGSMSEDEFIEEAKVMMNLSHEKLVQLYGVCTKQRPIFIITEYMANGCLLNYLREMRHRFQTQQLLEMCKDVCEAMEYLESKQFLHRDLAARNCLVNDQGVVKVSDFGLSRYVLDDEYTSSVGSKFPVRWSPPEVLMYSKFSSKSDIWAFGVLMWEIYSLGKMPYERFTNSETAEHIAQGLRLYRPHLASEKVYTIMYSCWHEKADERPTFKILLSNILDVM

Consider `COc1ccc2c(c1)/C(=C/c1cnc[nH]1)C(=O)N2` [PCM-0101915], for which the inhibition at 10 µM under setting [1] is 47.6%. Take `Nc1ncnc2c1ncn2[C@H]1C[C@H](O)[C@@H](CO)O1` [PCM-0101923]: the inhibition at 10 µM under setting [1] was 15.4%. Turning to `OB1OCc2cc(F)ccc21` [PCM-0101990], the inhibition at 10 µM under setting [1] is -10%. On the same count and under the same terms, the same measure for `O=c1c2ccccc2nc(/C=C/c2cccnc2)n1Cc1ccccc1` [PCM-0102024]: 0%; for `O=C(Nc1ccc(Cl)cc1)C1CCCN(C(=O)c2cccc(-c3ccco3)c2)C1` (stereo not shown) [PCM-0102067]: 40.9%. The same measure, in the same setting: the same measure for `O=C(C[C@H]1NCCC[C@@H]1O)Cn1cnc2cc(Br)c(Cl)cc2c1=O` [PCM-0102069]: 0%.

`Cc1cc(Nc2cc(N)ncn2)c(=O)n2c1C(=O)NC21CCCCC1` [PCM-0203357]: under setting [1], the inhibition at 10 µM turned out to be 6.9%. With `CCOc1cc(C(=O)N2CCC(N3CCN(C)CC3)CC2)ccc1Nc1ncc2c(n1)N(C1CCCC1)c1ccccc1C(=O)N2C` [PCM-0213331], the inhibition at 10 µM under setting [1] worked out at 0%. Still for that read-out and setting: the same measure for `CCN1CCN(Cc2ccc(C(=O)Nc3ccc(C)c(Oc4ccc5c(c4)CC(=O)N5)c3)cc2C(F)(F)F)CC1` [PCM-0213332]: 20.7%; for `CC(C)(C)S(=O)(=O)c1ccc2nccc(Nc3n[nH]c4ccc(F)cc34)c2c1` [PCM-0213348]: 26.2%. `O=C(NCCO)c1cccc(-c2cc(Nc3ccc(OC(F)(F)F)cc3)ncn2)c1` [PCM-0213352]: under setting [1], the inhibition at 10 µM was -24.1%.

Regarding `CNCc1ccc(-c2cc(-c3nc(-c4ccc(S(=O)(=O)C(C)C)cc4)cnc3N)on2)cc1` [PCM-0213360], the inhibition at 10 µM under setting [1] turned out to be 17.9%. `COc1cc(N2CCN(C)CC2)ccc1Nc1ncc2c(n1)N(C)c1ccccc1C(=O)N2` [PCM-0213372]: under setting [1], the inhibition at 10 µM came to 11%. For the compound `Cc1nc(Nc2cnn(C3CCNCC3)c2)nc2c1N(C)C(=O)c1cc3ccccc3cc1N2C` [PCM-0213384], the inhibition at 10 µM under setting [1] was 30.3%. Still for that read-out and setting: the same measure for `Cc1cnc(Nc2ccc(F)cc2Cl)nc1-c1c[nH]c(C(=O)N[C@H](CO)c2cccc(Cl)c2)c1` [PCM-0213398]: 60%; for `CC(C)N1CCN(Cc2cnc(-c3cc(-c4cccc5[nH]ccc45)cc4[nH]ncc34)o2)CC1` [PCM-0213407]: 51.7%.

`COc1ncc(-c2cc(-c3ncc(CN4C[C@@H](C)O[C@@H](C)C4)o3)c3cn[nH]c3c2)cc1NS(C)(=O)=O` [PCM-0213408]: the inhibition at 10 µM under setting [1] was found to be 6.2%.

For the compound `CC(C)S(=O)(=O)c1ccc2nccc(Nc3ccc4scnc4c3)c2c1` [PCM-0213432], the inhibition at 10 µM under setting [1] worked out at 26.2%. Same read-out and setting: the same measure for `O=C(Nc1cccnc1)c1cc(-c2ccnc(F)c2)ccc1OCc1ccccc1` [PCM-0213433]: 2.1%; for `CN1C(=O)[C@@H](NC(=O)c2cc(Cc3ccccc3)on2)COc2ccccc21` [PCM-0213452]: 3.1%; for `CN(C)C/C=C/C(=O)Nc1ccc(C(=O)Nc2cccc(Nc3ncc(Cl)c(-c4c[nH]c5ccccc45)n3)c2)cc1` [PCM-0213464]: 117%. Still for that read-out and setting: the same measure for `CN(C)CC(=O)Nc1ccc2[nH]c(=O)c3ccccc3c2c1` [PCM-0213810]: -7.7%; for `CC(=O)OC(C)(C)CCC(=O)[C@](C)(O)[C@H]1[C@H](O)C[C@@]2(C)[C@@H]3CC=C4[C@@H](C[C@H](O)[C@@H](O)C4(C)C)[C@]3(C)C(=O)C[C@]12C` [PCM-0214543]: -13.8%; for `COc1ccc(/C=C/c2cc(O)cc(O[C@@H]3O[C@H](CO)[C@@H](O)[C@H](O)[C@H]3O)c2)cc1O` [PCM-0214544]: 6.9%. Same read-out and setting: the same measure for `CO[C@H]1C[C@@H]2CC[C@@H](C)[C@@](O)(O2)C(=O)C(=O)N2CCCC[C@H]2C(=O)O[C@H]([C@H](C)C[C@@H]2CC[C@@H](OCCO)[C@H](OC)C2)CC(=O)[C@H](C)/C=C(\C)[C@@H](O)[C@@H](OC)C(=O)[C@H](C)C[C@H](C)/C=C/C=C/C=C/1C` [PCM-0214563]: -12.4%. Regarding `C[C@@H](O[C@H]1OCCN(Cc2n[nH]c(=O)[nH]2)[C@H]1c1ccc(F)cc1)c1cc(C(F)(F)F)cc(C(F)(F)F)c1` [PCM-0214564], the inhibition at 10 µM under setting [1] was -8.3%. Turning to `NC(=O)[C@@H](CCC(F)(F)F)N(Cc1ccc(-c2ncon2)cc1F)S(=O)(=O)c1ccc(Cl)cc1` [PCM-0214565], under setting [1], the inhibition at 10 µM was 9.3%. Same read-out and setting: the same measure for `CC1(C)CC(=O)c2c(C(F)(F)F)nn(-c3ccc(C(N)=O)c(NC4CCC(O)CC4)c3)c2C1` (stereo not shown) [PCM-0214567]: -36.6%. With `CC1(O)CC(c2nc(-c3ccc4ccc(-c5ccccc5)nc4c3)c3c(N)nccn23)C1` (stereo not shown) [PCM-0214568], the inhibition at 10 µM under setting [1] was determined as 33.1%.

For the compound `COCCCOc1cc(C[C@@H](C[C@H](N)[C@@H](O)C[C@H](C(=O)NCC(C)(C)C(N)=O)C(C)C)C(C)C)ccc1OC` [PCM-0214569], under setting [1], the inhibition at 10 µM worked out at 7%. Still for that read-out and setting: the same measure for `CC[C@H](NC(=O)[C@H](C)NC)C(=O)N1C[C@@H](O)C[C@H]1Cc1c(-c2[nH]c3cc(F)ccc3c2C[C@@H]2C[C@H](O)CN2C(=O)[C@H](CC)NC(=O)[C@H](C)NC)[nH]c2cc(F)ccc12` [PCM-0214572]: 5.4%; for `CN[C@@H](C)C(=O)N[C@H](C(=O)N1CCC[C@H]1C(=O)N[C@H](C(=O)NCCCCCCNC(=O)[C@@H](NC(=O)[C@@H]1CCCN1C(=O)[C@@H](NC(=O)[C@H](C)NC)C1CCCCC1)C(c1ccccc1)c1ccccc1)C(c1ccccc1)c1ccccc1)C1CCCCC1` [PCM-0214574] (I: H-[NMeA][Chg]P[Dip] / II: H-[NMeA][Chg]P[Dip]; linker I:C-II:C via Hexamethylenediamine): -1.5%. Same read-out and setting: the same measure for `OC1CCC(Nc2ncc3nc(Nc4c(F)cc(F)cc4F)n([C@H]4CCOC4)c3n2)CC1` (stereo partly shown) [PCM-0214575]: -10.3%.

`N#Cc1cnc(Nc2cc(NC[C@H]3CNCCO3)c(C(F)(F)F)cn2)cn1` [PCM-0214576]: the inhibition at 10 µM under setting [1] was -0.7%. In the case of `COC(=O)c1ccc([C@H]2C3Nc4ccccc4C3C[C@H](C(=O)OC)N2C(=O)CCl)cc1` (stereo partly shown) [PCM-0214584], the inhibition at 10 µM under setting [1] is 35.5%. As to `COc1cc(C)[nH]c(=O)c1CNC(=O)c1c(C)n([C@H](C)C2CCOCC2)c2ccccc12` [PCM-0214591], the inhibition at 10 µM (read-out: BTK inhibition (%)) was -24.7%. As for `COc1cc(C)[nH]c(=O)c1CNC(=O)c1c(C)n([C@H](C)C2CCN(CC(F)(F)F)CC2)c2ccccc12` [PCM-0214592], the inhibition at 10 µM under setting [1] was 21.6%. Consider `O=C(CCCCCCNC(=O)c1cnc(N(c2ccccc2)c2ccccc2Cl)nc1)NO` [PCM-0214593], for which the inhibition at 10 µM under setting [1] is -6.9%.

As for `CCS(=O)(=O)Nc1ccc(Oc2ccc(F)cc2F)c(-c2cn(C)c(=O)c3[nH]ccc23)c1` [PCM-0214596], the inhibition at 10 µM under setting [1] was 16.2%. On the same count and under the same terms, the same measure for `CO[C@H]1C[C@@H]2CC[C@@H](C)[C@@](O)(O2)C(=O)C(=O)N2CCCC[C@H]2C(=O)O[C@H]([C@H](C)C[C@@H]2CC[C@@H](OP(C)(C)=O)[C@H](OC)C2)CC(=O)[C@H](C)/C=C(\C)[C@@H](O)[C@@H](OC)C(=O)[C@H](C)C[C@H](C)/C=C/C=C/C=C/1C` [PCM-0214600]: -16.6%; for `CC(=O)O[C@H]1C(=O)[C@@]2(C)[C@H]([C@H](OC(=O)c3ccccc3)[C@]3(O)C[C@H](OC(=O)[C@H](O)[C@@H](NC(=O)c4ccccc4)c4ccccc4)C(C)=C1C3(C)C)[C@]1(OC(C)=O)CO[C@@H]1C[C@@H]2O` [PCM-0214601]: -17.9%. The same measure, in the same setting: the same measure for `CC(C)(C)OC(=O)N[C@H]1CCCCC/C=C\[C@@H]2C[C@@]2(C(=O)NS(=O)(=O)C2CC2)NC(=O)[C@@H]2C[C@@H](OC(=O)N3Cc4cccc(F)c4C3)CN2C1=O` [PCM-0214602]: -12.5%. Take `CC(C)c1nc(CN(C)C(=O)N[C@H](C(=O)N[C@@H](Cc2ccccc2)C[C@H](O)[C@H](Cc2ccccc2)NC(=O)OCc2cncs2)C(C)C)cs1` [PCM-0214603]: the inhibition at 10 µM under setting [1] is -19.5%. Same read-out and setting: the same measure for `C[C@]12CC[C@@H]3c4ccc(O)cc4C[C@@H](CCCCCCCCC[S+]([O-])CCCC(F)(F)C(F)(F)F)[C@H]3[C@@H]1CC[C@@H]2O` (stereo partly shown) [PCM-0214604]: 15.6%; for `C=C1C[C@@H]2[C@H](CC[C@]3(C)C(=O)CC[C@@H]23)[C@@]2(C)C=CC(=O)C=C12` [PCM-0214605]: -6.9%; for `C[C@]12C=CC(=O)N[C@@H]1CC[C@@H]1[C@@H]2CC[C@]2(C)[C@@H](C(=O)Nc3cc(C(F)(F)F)ccc3C(F)(F)F)CC[C@@H]12` [PCM-0214606]: -4.7%.

Consider `COc1cc2c(cc1O)CC[C@@H]1[C@@H]2CC[C@]2(C)[C@@H](O)CC[C@@H]12` [PCM-0214607], for which the inhibition at 10 µM under setting [1] is -2.8%. As for `CC[C@@H]([C@H](C)O)n1ncn(-c2ccc(N3CCN(c4ccc(OC[C@@H]5CO[C@@](Cn6cncn6)(c6ccc(F)cc6F)C5)cc4)CC3)cc2)c1=O` [PCM-0214608], the inhibition at 10 µM under setting [1] was 4.7%. On the same count and under the same terms, the same measure for `CCCC1O[C@@H]2C[C@H]3[C@@H]4CCC5=CC(=O)C=C[C@]5(C)[C@H]4[C@@H](O)C[C@]3(C)[C@]2(C(=O)CO)O1` (stereo partly shown) [PCM-0214610]: -13.1%; for `CC(=O)O[C@]1(C(C)=O)CC[C@H]2[C@@H]3C=C(C)C4=CC(=O)CC[C@]4(C)[C@H]3CC[C@@]21C` [PCM-0214613]: -4.8%; for `C=C1C(=O)O[C@@H]2/C=C(\C)CC/C=C(\C)CC[C@@H]12` [PCM-0214614]: 46.7%. Still for that read-out and setting: the same measure for `C[C@@H]1C(=O)O[C@H]2[C@@H](O)[C@@]34[C@H]5C[C@@H](C(C)(C)C)[C@]36[C@@H](OC(=O)[C@@H]6O)O[C@@]4(C(=O)O5)[C@@]12O` [PCM-0214615]: 16.3%; for `C#C[C@]1(O)C=C[C@H]2[C@@H]3CCC4=CC(=O)CC[C@@H]4[C@H]3CC[C@@]21CC` [PCM-0214616]: 3.1%. The same measure, in the same setting: the same measure for `C[C@]12CCC(=O)C=C1[C@@H]1C[C@@H]1[C@H]1[C@@H]3[C@@H]4C[C@@H]4[C@@]4(CCC(=O)O4)[C@@]3(C)CC[C@@H]12` [PCM-0214617]: -15.6%; for `Cc1cccc(C)c1OCC(=O)N[C@@H](Cc1ccccc1)[C@@H](O)C[C@H](Cc1ccccc1)NC(=O)[C@H](C(C)C)N1CCCNC1=O` [PCM-0214618]: -21.8%.

As usually defined, the inhibition is the drop in the measured response relative to a control, in per cent.
